Measurements: patent US20130196960A1, “Cannabinoid Receptor Agonists” (Ironwood Pharmaceuticals, Inc., priority 2010, published 2013)
Read-outs that look alike come from different tables or passages of the source.

Assays:
human CB1 = human CB1 (Homo sapiens, UniProt P21554); assay: Human CB1 cannabinoid receptor radioligand binding assay ([3H]-CP 55,940 displacement, HEK-293 membranes)
Source text: (§1) cDNA expression clones for human CB1 (hCB1, Genbank Accession No. AY225225) and human CB2 (hCB2, Genbank Accession No. AY242132) expressed in vector pcDNA3.1+ were purchased from UMR cDNA Resource Center, Rolla, Mo. (Clone ID CNR01L000 for hCB1; CNR0200000 for hCB2).
(§2) Stable, HEK-293-derived cell lines that recombinantly express hCB1 or hCB2 were established. In brief, the clone hCB1 (CNR1L) or hCB2 (CNR2) was transfected into human embryonic kidney cells (HEK-293) using Lipofectamine 2000 (Gibco, Cat#11668-019) according to the manufacturer's protocol. Transfected clones were isolated by single colony purification and clones were screened for receptor expression using a whole cell, 3H-CP 55,940 radioligand binding assay. HEK-293 stable cells were maintained in Dulbecco's modified Eagles medium (DMEM) containing 10% fetal bovine serum, 2 mM L-glutamine and 0.5 mg/mL G-418.
(§3) Membranes were isolated from transfected cells as follows. Monolayers of cultured cells were washed twice with phosphate-buffered saline (PBS). Cells were scraped into 20 mM HEPES, pH 7.4, 10 mM EDTA containing complete cocktail protease inhibitors (Roche, Catalog #11 697 498 001), and were homogenized by an electric-powered mechanical probe homogenizer (Omni GLH; probe G7-195S) for 40 seconds at 7000 rpm. Homogenates were centrifuged 10 minutes at 1000×g at 4° C. The supernatant was collected and was centrifuged for 1 hour at 40,000×g. The supernatant was then decanted and the resulting pellet was re-suspended in 20 mM HEPES, pH 7.4, 5 mM MgCl2, 1 mM EDTA, 10% sucrose with complete cocktail protease inhibitors. Protein concentration of membrane suspensions were measured by Bradford Protein Assay using bovine serum albumin as the standard (BioRad catalog #500-0006). Protein concentrations of membrane suspensions were adjusted with the final buffer in the range of 5 to 10 mg/mL and were stored at −80° C. until further use.
(§4) Radioligand binding assays were performed by incubating membranes (2-10 μg protein) prepared from HEK-293 cells expressing recombinant human cannabinoid receptors, CB1 or CB2, at room temperature with 0.5 nM cannabinoid receptor agonist, [3H]-CP 55,940 (Perkin Elmer, catalog #NET1051) in 0.2 mL of binding buffer (50 mM Tris-HCl, pH 7.5, 5 mM MgCl2, 2.5 mM EDTA) and 0.1% fatty acid free bovine serum albumin (Sigma Cat. #A0821) for 90 minutes. A rapid filtration technique using Millipore FB filter plates (Catalog #MADVNOB) and filtration apparatus (Millipore system Catalog MAVM0960R) with vacuum aspiration was used to harvest and rinse labeled membranes (8 times with 0.2 mL of chilled binding buffer). The radioactivity bound to the filters was counted with 0.05 mL of liquid scintillant (UltraGold MV, PerkinElmer catalog #6013159) in a scintillation counter (Perkin Elmer Microbeta instrument). Nonspecific binding was determined in the presence of unlabeled 1 μM CP 55,940 (Sigma Aldrich, catalog #C1112). Binding data were analyzed using GraphPad Prism (GraphPad Software, Inc. San Diego, Calif.).

human CB2 [1] = target: T1, human CB2 (Homo sapiens, UniProt P34972); assay: Human CB2 cannabinoid receptor radioligand binding assay ([3H]-CP 55,940 displacement, HEK-293 membranes)
T1 sequence (P34972 whole entry): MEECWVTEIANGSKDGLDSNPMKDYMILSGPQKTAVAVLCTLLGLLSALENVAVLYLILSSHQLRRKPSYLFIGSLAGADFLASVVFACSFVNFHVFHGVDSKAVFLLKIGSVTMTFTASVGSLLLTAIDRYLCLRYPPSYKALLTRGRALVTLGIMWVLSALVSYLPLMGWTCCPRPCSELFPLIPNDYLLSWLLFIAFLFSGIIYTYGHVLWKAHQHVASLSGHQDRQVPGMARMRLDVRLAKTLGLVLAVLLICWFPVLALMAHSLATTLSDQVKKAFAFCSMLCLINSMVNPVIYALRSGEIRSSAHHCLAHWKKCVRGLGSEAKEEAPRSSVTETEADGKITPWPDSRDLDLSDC
Source text: as §1, §2, §3, §4

human CB2 [2] = target: T1, human CB2; assay: 35S GTPγS binding functional assay, agonist mode, hCB2 HEK-293 membranes; format: biochemical
Method: Functional assays which monitor G-protein coupled receptor or downstream cellular responses can be used to characterize potential CB1 receptor and/or CB2 receptor agonist or antagonist activities. Direct activation (or inhibition of activation) can be monitored using a GTPγS assay (membrane-based assay) or cAMP assay (whole cell-based assay).
^35S GTPγS binding assays were performed by incubating recombinant cell membranes prepared above (5 μg) in the presence of scintillation proximity assay beads (SPA beads, Catalog #RPNQ0252 GE Healthcare, Buckinghamshire, England) in GTPγS binding buffer [50 mM HEPES (pH 7.4), 100 mM NaCl, 5 mM MgCl2, 0.001% saponin (Sigma catalog #S4521)] supplemented with 20 uM GDP (Sigma catalog #G7127) in the presence or absence of test compound. The reaction was carried out in 96-well microplates with 0.1 nM [^35S]GTPγS (specific activity=1250 Ci/mmol; Perkin Elmer catalog #NEG030X250UC) in a final volume of 100 uL. After a 90 min room temperature incubation, the reaction was analyzed using a scintillation counter (Perkin Elmer Microbeta instrument). Binding data were analyzed using GraphPad Prism.

mouse = assay: Phenylbenzoquinone-induced (PBQ) writhing model; details: dose 30 (unit not given), route IP, P < 0.001
[3] = read-out: hCB1 IC50 (CP displ, nM, HEK), CP 55,940 displacement, HEK-293 membranes
[4] = read-out: hCB2 IC50 (CP displ, nM, HEK), CP 55,940 displacement, HEK-293 membranes
[5] = GTPγS agonist mode, HEK-293 membranes, read-out: hCB2 EC50 (GTPyS ag, nM, HEK)
[6] = read-out: hCB2 EC50 (GTPyS ag, nM, HEK), GTPγS agonist mode, HEK-293 membranes
[7] = CP 55,940 displacement, HEK-293 membranes, read-out: hCB1 IC50 (CP displ, nM, HEK)
[8] = CP 55,940 displacement, HEK-293 membranes, read-out: hCB2 IC50 (CP displ, nM, HEK)

Chain of human CB1 (P21554 whole entry): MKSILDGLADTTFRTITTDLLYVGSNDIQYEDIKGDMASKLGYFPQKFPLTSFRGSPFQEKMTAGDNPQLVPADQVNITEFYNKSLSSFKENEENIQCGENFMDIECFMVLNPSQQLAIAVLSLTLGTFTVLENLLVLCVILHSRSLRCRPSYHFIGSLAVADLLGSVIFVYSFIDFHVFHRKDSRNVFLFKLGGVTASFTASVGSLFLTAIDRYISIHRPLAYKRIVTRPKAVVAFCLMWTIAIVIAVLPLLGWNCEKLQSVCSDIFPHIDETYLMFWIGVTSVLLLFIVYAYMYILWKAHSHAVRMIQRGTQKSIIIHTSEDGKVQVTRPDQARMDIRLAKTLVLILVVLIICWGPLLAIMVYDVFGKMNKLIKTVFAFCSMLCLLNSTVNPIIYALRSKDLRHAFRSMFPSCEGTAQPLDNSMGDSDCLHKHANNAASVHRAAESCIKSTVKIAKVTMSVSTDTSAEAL

SMILES | IC50 (human CB1; [3]) [nM] | IC50 (human CB2 [1]; [4]) [nM] | EC50 (human CB2 [2]; [5]) [nM] | other results
Cc1c(C(=O)c2cccc(Cl)c2Cl)c2cc(Cl)sc2n1CCN1CCOCC1 [Compound I-19] | 1000 to 10000 | < 100 | 100 to 1000 | –
Cc1c(C(=O)c2cccnc2Cl)c2ccsc2n1CCN1CCOCC1 [Compound I-28] | > 10000 | 1000 to 10000 | – | –
CCn1c(C)c(C(=O)c2cccc(Cl)c2Cl)c2ccsc21 [Compound I-30] | > 10000 | 1000 to 10000 | – | EC50 (human CB2 [2]; [6]): 100 to 1000 nM
Cc1c(C(=O)c2cccc(Cl)c2Cl)c2ccsc2n1CCC1CCOCC1 [Compound I-9] | 100 to 1000 | < 100 | < 100 | –
Cc1c(C(=O)c2cccc(Cl)c2Cl)c2ccsc2n1CC(=O)N1CCOCC1 [Compound I-18] | > 10000 | 100 to 1000 | – | EC50 (human CB2 [2]; [6]): 100 to 1000 nM
CCS(=O)(=O)n1c(C)c(C(=O)c2cccc(Cl)c2Cl)c2ccsc21 [Compound I-21] | – | – | – | IC50 (human CB1; [7]): > 10000 nM; IC50 (human CB2 [1]; [8]): 1000 to 10000 nM
Cc1c(C(=O)c2ccc(Cl)cc2Cl)c2ccsc2n1CCN1CCOCC1 [Compound I-15] | > 10000 | 100 to 1000 | 100 to 1000 | –
Cc1c(C(=O)c2ccccc2)c2ccsc2n1CCN1CCOCC1 [Compound I-31] | > 10000 | > 10000 | – | –
CCCn1c(C)c(C(=O)c2ccccc2)c2ccsc21 [Compound I-7] | – | – | – | IC50 (human CB1; [7]): > 10000 nM; IC50 (human CB2 [1]; [8]): > 10000 nM
Cc1c(C(=O)c2cccc(Cl)c2Cl)c2ccsc2n1CCC1CCN(C)CC1 [Compound I-25] | > 10000 | > 10000 | – | –
COCCn1c(C)c(C(=O)c2cccc(Cl)c2Cl)c2ccsc21 [Compound I-10] | > 10000 | 100 to 1000 | 100 to 1000 | –
Cc1c(C(=O)c2cccc(F)c2F)c2ccsc2n1CCN1CCOCC1 [Compound I-11] | > 10000 | 1000 to 10000 | 100 to 1000 | –
Cc1c(C(=O)c2cccc(Cl)c2Cl)c2ccsc2n1CCC1CCN(C(=O)OC(C)(C)C)CC1 [Compound I-22] | – | – | – | IC50 (human CB1; [7]): > 10000 nM; IC50 (human CB2 [1]; [8]): > 10000 nM
Cc1c(C(=O)c2cccc(Cl)c2Cl)c2sccc2n1CCN1CCOCC1 [Compound I-5] | 1000 to 10000 | < 100 | < 100 | –
CCCOc1ccccc1C(=O)c1c(C)n(CCN2CCOCC2)c2sccc12 [Compound I-27] | > 10000 | 1000 to 10000 | – | –
Cc1c(C(=O)c2cccc(Cl)c2Cl)c2ccsc2n1CCN1CCOCC1 [Compound I-1, (2,3-dichlorophenyl)(5-methyl-6-(2-morpholinoethyl)-6H-thieno[2,3-b]pyrrol-4-yl)methanone] | – | – | – | IC50 (human CB1): 1000 to 10000 nM; IC50 (human CB2 [1]): < 100 nM; EC50 (human CB2 [2]): < 100 nM; Number of Writhes (mouse): 1.5 ± 0.79
Cc1c(C(=O)c2cccc(Cl)c2Cl)c2scnc2n1CCN1CCOCC1 [Compound I-3] | 1000 to 10000 | < 100 | < 100 | –
Cc1c(C(=O)c2cccc(Cl)c2Cl)c2ccsc2n1CCN1CCCCC1 [Compound I-17] | 1000 to 10000 | < 100 | < 100 | –
CCCn1c(C)c(C(=O)c2cccc(Cl)c2Cl)c2scnc21 [Compound I-4] | > 10000 | 100 to 1000 | < 100 | –
Cc1c(C(=O)c2cccc(Cl)c2)c2ccsc2n1CCN1CCOCC1 [Compound I-12] | 1000 to 10000 | 1000 to 10000 | – | –
CCCn1c(C)c(C(=O)c2cccc(Cl)c2Cl)c2ccsc21 [Compound I-2] | > 10000 | 100 to 1000 | < 100 | –
Cc1c(C(=O)c2cccc(Cl)c2Cl)c2ccsc2n1CC1CCCCN1C (centres unmarked) [Compound I-20] | < 100 | < 100 | < 100 | –
Cc1c(C(=O)c2cccc(Cl)c2Cl)c2ccsc2n1CC1CCOCC1 [Compound I-23] | 1000 to 10000 | < 100 | < 100 | –
Cc1c(C(=O)C2CCCCC2)c2ccsc2n1CCN1CCOCC1 [Compound I-24] | 1000 to 10000 | 100 to 1000 | 100 to 1000 | –
Cc1c(C(=O)C2C(C)(C)C2(C)C)c2ccsc2n1CCN1CCOCC1 [Compound I-8] | 1000 to 10000 | 100 to 1000 | < 100 | –
Cc1c(C(=O)c2cccc3c2OCC3)c2ccsc2n1CCN1CCOCC1 [Compound I-14] | 1000 to 10000 | 100 to 1000 | 100 to 1000 | –
